Our source for the IC50 values is patent US11459312B2, “Sulphur substituted 3-oxo-2,3-dihydropyridazine-4-carboxamides” (Bayer Aktiengesellschaft, priority 2017, dated 2022).

This assay has as its target T1, AHR (Homo sapiens, UniProt P35869).
T1 sequence (P35869 11-848): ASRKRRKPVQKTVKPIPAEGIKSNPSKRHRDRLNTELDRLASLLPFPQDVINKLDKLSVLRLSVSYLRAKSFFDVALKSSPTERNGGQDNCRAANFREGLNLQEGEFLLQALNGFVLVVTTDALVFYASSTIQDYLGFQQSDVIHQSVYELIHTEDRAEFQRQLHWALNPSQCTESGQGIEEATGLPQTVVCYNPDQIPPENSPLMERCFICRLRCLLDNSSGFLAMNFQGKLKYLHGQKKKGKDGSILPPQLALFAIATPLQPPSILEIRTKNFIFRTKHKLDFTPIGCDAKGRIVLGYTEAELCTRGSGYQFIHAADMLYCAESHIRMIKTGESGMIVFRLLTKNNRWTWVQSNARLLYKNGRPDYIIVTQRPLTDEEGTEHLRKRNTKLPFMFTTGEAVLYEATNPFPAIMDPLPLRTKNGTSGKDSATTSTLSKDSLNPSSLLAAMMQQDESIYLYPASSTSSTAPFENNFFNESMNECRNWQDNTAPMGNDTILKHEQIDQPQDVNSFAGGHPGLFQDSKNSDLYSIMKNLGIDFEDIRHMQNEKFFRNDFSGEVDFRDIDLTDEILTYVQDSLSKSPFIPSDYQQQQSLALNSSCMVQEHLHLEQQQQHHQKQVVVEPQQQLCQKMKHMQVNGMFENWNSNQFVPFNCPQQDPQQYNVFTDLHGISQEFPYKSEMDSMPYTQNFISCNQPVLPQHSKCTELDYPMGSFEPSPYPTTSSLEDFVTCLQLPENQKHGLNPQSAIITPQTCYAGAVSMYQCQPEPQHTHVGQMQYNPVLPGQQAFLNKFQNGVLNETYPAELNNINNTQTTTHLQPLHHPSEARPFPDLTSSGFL
The assay is described as follows: In vitro assay 1: AHR-luc transactivation assay, antagonism in human cell line (U87 glioblastoma cells, kynurenic acid prestimulated). Type of assay: cell-based. On the set-up: U87 glioblastoma cells (ATCC) endogenously expressing AHR; host or cells: U87 glioblastoma cells, stably transfected with DRE-firefly luciferase and renilla reporter constructs only. The settings on record: firefly luciferase DRE reporter, 150 μM kynurenic acid, 20 hours, read-out: Assay 1: AHR-luc Hum Antagonism IC50. As to the method: Transactivation Assay in Human Cell Line (In Vitro Assays 1 and 2)
Transactivation assays were carried out in U87 glioblastoma cells (ATCC) endogenously expressing AHR. In addition the cells were stably transfected with an AHR inducible firefly luciferase reporter gene construct that carried AHR-binding sites (DRE) in its promoter and a renilla reporter gene construct with constitutively active promoter. Kynurenic acid is an endogenous AHR activating ligand and was used to prestimulate test cells prior to testing the antagonistic properties of compounds.
In Vitro Assay 1: Antagonism in Human Cell Line
Cells in medium (tryptophan free RPMI, 1% FCS, 2 mM Glutamine) supplemented with 150 μM kynurenic acid were grown for 20 hours in absence (negative control) or presence of increasing concentrations of test compounds (typical dilutions: […], 0.25 nmol/L, 0.89 nmol/L; 3.1 nmol/L, 11 nmol/L, 38 nmol/L, 130 nmol/L, 470 nmol/L, 1.6 μmol/L, 5.7 μmol/L and 20 μmol/L in duplicates). As positive inhibition control cells supplemented with 150 μM kynurenic acid were incubated in presence of 5 μM Staurosporin. Normalization was done by positive and negative controls.
Firefly luciferase and Renilla activity was determined by the DualGlo Luciferase Assay System (Promega, #2920). Renilla activity was used to assess toxic effects of compounds.
As a reminder, the IC50 is the midpoint of a concentration-inhibition curve. Regarding `O=C(N[C@@H]1C[S+]([O-])C[C@@H]1O)c1cc(-c2ccc(Cl)cc2)nn(-c2cccc(F)c2)c1=O` (single isomer, unassigned; (-)) [Example 28, (−)-6-(4-chlorophenyl)-2-(3-fluorophenyl)-N-[(cis)-4-hydroxy-1-oxidotetrahydro-thiophen-3-yl]-3-oxo-2,3-dihydropyridazine-4-carboxamide], the IC50 amounted to 13.4 nM.
Take `O=C(N[C@@H]1C[S+]([O-])C[C@@H]1O)c1cc(-c2ccc(Cl)cc2)nn(-c2cccc(F)c2)c1=O` (single isomer, unassigned; (-)) [Example 30, (−)-6-(4-chlorophenyl)-2-(3-fluorophenyl)-N-[(cis)-4-hydroxy-1-oxidotetrahydro-thiophen-3-yl]-3-oxo-2,3-dihydropyridazine-4-carboxamide]: the IC50 was 210 nM.
As to `CS(=N)(=O)CCNC(=O)c1cc(-c2ccc(Cl)cc2)nn(-c2cccc(F)c2)c1=O` (stereo not drawn) [Example 52, 6-(4-Chlorophenyl)-2-(3-fluorophenyl)-N-[2-(S-methylsulfonimidoyl)ethyl]-3-oxo-2,3-dihydropyridazine-4-carboxamide], the half-inhibitory concentration (IC50) was 700 nM.
`O=C(N[C@@H]1C[S+]([O-])C[C@@H]1O)c1cc(-c2ccc(Cl)cc2)nn(-c2cccc(F)c2)c1=O` (single isomer, unassigned) [Example 29, 6-(4-chlorophenyl)-2-(3-fluorophenyl)-N-[(cis)-4-hydroxy-1-oxidotetrahydro-thiophen-3-yl]-3-oxo-2,3-dihydropyridazine-4-carboxamide]: the IC50 was determined as 301 nM.
Consider `O=C(N[C@@H]1CS(=O)(=O)C[C@@H]1O)c1cc(-c2ccc(C(F)(F)F)cc2)nn(-c2cccc(F)c2)c1=O` (single isomer, unassigned) [Example 14, (+)-2-(3-fluorophenyl)-N-[(cis)-4-hydroxy-1,1-dioxidotetrahydro-thiophen-3-yl]-3-oxo-6-[4-(trifluoromethyl)phenyl]-2,3-dihydropyridazine-4-carboxamide], for which the IC50 worked out at 6.45 nM.
Next, `C[C@@H](CS(C)(=O)=O)NC(=O)c1cc(-c2ccc(Cl)cc2)nn(-c2cccc(F)c2)c1=O` [Example 2, 6-(4-Chlorophenyl)-2-(3-fluorophenyl)-N-[(2S)-1-(methylsulfonyl)propan-2-yl]-3-oxo-2,3-dihydropyridazine-4-carboxamide]: 147 nM; `C[C@@H](C[S+](C)[O-])NC(=O)c1cc(-c2ccc(C(F)(F)F)cc2)nn(-c2cnn(C)c2)c1=O` (single isomer, unassigned) [Example 25]: 41.4 nM; `C[C@@H](CS(C)(=N)=O)NC(=O)c1cc(-c2ccc(C(F)(F)F)cc2)nn(-c2cnn(C)c2)c1=O` (mixture of isomers) [Example 38, 2-(1-Methyl-1H-pyrazol-4-yl)-N-[(2S)-1-(S-methylsulfonimidoyl)propan-2-yl]-3-oxo-6-[4-(trifluoromethyl)phenyl]-2,3-dihydropyridazine-4-carboxamide]: 54.8 nM.
For `O=C(N[C@@H]1CS(=O)(=O)C[C@@H]1O)c1cc(-c2ccc(C(F)(F)F)cc2)nn(-c2cccnc2)c1=O` (relative stereo) [Example 16, N-[(cis)-4-hydroxy-1,1-dioxidotetrahydro-thiophen-3-yl]-3-oxo-2-(pyridin-3-yl)-6-[4-(trifluoromethyl)phenyl]-2,3-dihydropyridazine-4-carboxamide], the IC50 was determined as 29.2 nM.
The result for `N=S1(=O)C[C@H](O)[C@H](NC(=O)c2cc(-c3ccc(Cl)cc3)nn(-c3cccc(F)c3)c2=O)C1` (single isomer, unassigned) [Example 43, 6-(4-chlorophenyl)-2-(3-fluorophenyl)-N-[(cis)-4-hydroxy-1-imino-1-oxidotetrahydro-1H-1lambda4-thiophen-3-yl]-3-oxo-2,3-dihydropyridazine-4-carboxamide] reads 43.8 nM; that for `O=C(N[C@@H]1CS(=O)(=O)C[C@@H]1O)c1cc(-c2ccc(C(F)(F)F)cc2)nn(-c2cnsc2)c1=O` (single isomer, unassigned) [Example 12, (+)-N-[(cis)-4-hydroxy-1,1-dioxidotetra-hydrothiophen-3-yl]-3-oxo-2-(1,2-thiazol-4-yl)-6-[4-(trifluoromethyl)phenyl]-2,3-dihydropyridazine-4-carboxamide], 1.11 nM.
For `O=C(N[C@@H]1CS(=O)(=O)C[C@@H]1O)c1cc(-c2ccc(C(F)(F)F)nc2)nn(-c2cccc(F)c2)c1=O` (single isomer, unassigned) [Example 21, (−)-2-(3-fluorophenyl)-N-[(cis)-4-hydroxy-1,1-dioxidotetrahydro-thiophen-3-yl]-3-oxo-6-[6-(trifluoromethyl)pyridin-3-yl]-2,3-dihydropyridazine-4-carboxamide], the IC50 is 205 nM.
Next, `O=C(N[C@@H]1CS(=O)(=O)C[C@@H]1O)c1cc(-c2ccc(C(F)(F)F)nc2)nn(-c2cccc(F)c2)c1=O` (relative stereo) [Example 19, 2-(3-fluorophenyl)-N-[(cis)-4-hydroxy-1,1-dioxidotetrahydro-thiophen-3-yl]-3-oxo-6-[6-(trifluoromethyl)pyridin-3-yl]-2,3-dihydropyridazine-4-carboxamide]: 69.9 nM.
With `C[C@@H](CS(C)(=O)=O)NC(=O)c1cc(-c2ccc(C(F)(F)F)cc2)nn(-c2cnn(C)c2)c1=O` [Example 22, 2-(1-Methyl-1H-pyrazol-4-yl)-N-[(2S)-1-(methylsulfonyl)propan-2-yl]-3-oxo-6-[4-(trifluoromethyl)phenyl]-2,3-dihydropyridazine-4-carboxamide], the half-maximal inhibitory concentration (IC50) was 21.9 nM.
With `CSC[C@H](C)NC(=O)c1cc(-c2ccc(Cl)cc2)nn(-c2cccc(F)c2)c1=O` [Example 1, 6-(4-Chlorophenyl)-2-(3-fluorophenyl)-N-[(2S)-1-(methylsulfanyl)propan-2-yl]-3-oxo-2,3-dihydropyridazine-4-carboxamide], the IC50 worked out at 52.6 nM.
Consider `O=C(N[C@@H]1C[S+]([O-])C[C@@H]1O)c1cc(-c2ccc(C(F)(F)F)cc2)nn(-c2cccnc2)c1=O` (relative stereo) [Example 33, N-[(cis)-4-hydroxy-1-oxidotetrahydro-thiophen-3-yl]-3-oxo-2-(pyridin-3-yl)-6-[4-(trifluoromethyl)phenyl]-2,3-dihydropyridazine-4-carboxamide], for which the IC50 is 139 nM.
Turning to `C[C@@H](CS(C)(=N)=O)NC(=O)c1cc(-c2ccc(C(F)(F)F)cc2)nn(-c2cnn(C)c2)c1=O` (single isomer, unassigned) [Example 39], the IC50 came out at 133 nM.
For the molecule `C[C@@H](CS(C)(=N)=O)NC(=O)c1cc(-c2ccc(C(F)(F)F)cc2)nn(-c2cnn(C)c2)c1=O` (single isomer, unassigned) [Example 40], the IC50 stood at 80.3 nM.
The result for `N=S1(=O)C[C@H](O)[C@H](NC(=O)c2cc(-c3ccc(Cl)cc3)nn(-c3cccc(F)c3)c2=O)C1` (stereo partly drawn) [Example 44, 6-(4-chlorophenyl)-2-(3-fluorophenyl)-N-[(cis)-4-hydroxy-1-imino-1-oxidotetrahydro-1H-1lambda4-thiophen-3-yl]-3-oxo-2,3-dihydropyridazine-4-carboxamide] reads 99.3 nM.
In the case of `O=C(N[C@@H]1CS(=O)(=O)C[C@@H]1O)c1cc(-c2ccc(C(F)(F)F)cc2)nn(-c2cnsc2)c1=O` (relative stereo) [Example 10, N-[(cis)-4-hydroxy-1,1-dioxidotetrahydro-thiophen-3-yl]-3-oxo-2-(1,2-thiazol-4-yl)-6-[4-(trifluoromethyl)phenyl]-2,3-dihydropyridazine-4-carboxamdie], the IC50 stood at 2.41 nM.
On to `C[C@@H](CS(C)(=N)=O)NC(=O)c1cc(-c2ccc(Cl)cc2)nn(-c2cccc(F)c2)c1=O` (mixture of isomers) [Example 6, 6-(4-Chlorophenyl)-2-(3-fluorophenyl)-N-[(2S)-1-(S-methylsulfonimidoyl)propan-2-yl]-3-oxo-2,3-di hydropyridazine-4-carboxamide], for which the IC50 stood at 232 nM.
